Test results from US11236085B2, “PD-1/PD-L1 inhibitors” (Gilead Sciences, Inc., priority 2018, dated 2022).
pEC50, pIC50: −log10 of the molar value.

Key:
[1] = molecular target: T1, PD-1/PD-L1 (Homo sapiens, UniProt Q9NZQ7); assay: PD-1/PD-L1 biochemical protein-protein interaction assay (ALPHA); type: binding; settings: 0.3 nM His tagged PD-L1, 2.5 nM biotinylated Fc-PD-1; 60 minutes at 25° C.; read-out: IC50 PD-L1-PD1
Description: PD-1/PD-L1 & CTLA/CD80 Biochemical Protein-Protein Interaction Assay
Compounds were tested in biochemical protein-protein interaction assays to determine if they can specifically block the interaction between the extracellular domains of PD-1/PD-L1 or CTLA/CD80. Binding of the protein pairs is measured using a bead based Amplified Luminescent Proximity Homogeneous Assay (ALPHA) platform. Binding of each protein pair results in proximity of the donor and acceptor beads which leads to an increase in ALPHA signal. Disruption of the protein-protein interaction with a test compound results in a decrease in ALPHA signal. Assays are performed in 25 mM Hepes (pH 7.4), 150 mM NaCl, 3.4 mM EDTA, 0.005% Tween 20, and 0.01% BSA. Final protein concentration in the assays were 0.3 nM (His tagged PD-L1), 2.5 nM (biotinylated Fc-PD-1), 1 nM (His tagged CTLA4) and 1 nM (biotinylated CD80). After an assay reaction time of 60 minutes at 25° C., binding was measured with addition of 20 μg/mL ALPHA assay acceptor beads (anti-His coated) and 20 µg/mL ALPHA assay donor beads (streptavidin coated). IC50 values were calculated from the fit of the dose-response curves to a four-parameter equation. Representative data are shown below in Table 3.
Target sequence in this assay (Q9NZQ7 19-238 limits assumed): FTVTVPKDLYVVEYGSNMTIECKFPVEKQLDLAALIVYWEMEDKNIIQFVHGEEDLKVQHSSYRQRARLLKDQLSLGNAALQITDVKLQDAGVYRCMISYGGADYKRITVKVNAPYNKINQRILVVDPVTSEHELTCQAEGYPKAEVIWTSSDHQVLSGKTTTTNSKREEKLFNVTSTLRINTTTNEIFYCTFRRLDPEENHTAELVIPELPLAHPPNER

[2] = molecular target: T1, PD-1/PD-L1; assay: PD-1/PD-L1 NFAT reporter assay (co-culture of aAPC-PD-L1 CHO cells and Jurkat cells overexpressing PD-1, NFAT luciferase); type: cell-based; parameters: expressed in transfected cells; host or cells: CHO cells (aAPC-PD-L1) co-cultured with Jurkat cells overexpressing PD-1; settings: co-culture incubated for 6 hrs at 37° C.; luciferase under NFAT control
Description: PD-1/PD-L1 NFAT Reporter Assay
Compounds were tested in a functional co-culture reporter assay in which TCR-mediated NFAT activity is inhibited by the engagement of PD-1 with PD-L1. […] CHO cells expressing surface-bound anti-CD3 antibodies and PD-L1 (artificial antigen presenting cells, aAPC-PD-L1) were first seeded overnight. Jurkat cells overexpressing PD-1 and expressing a luciferase construct under NFAT control are diluted in RPMI assay medium (RPMI 1640 with 2% FBS), mixed with compounds, and immediately seeded on the monolayer of aAPC-PD-L1. The co-culture is then incubated for 6 hrs at 37° C. Luciferase activity is assessed by adding the ONE-Glo reagent and measuring luminescence with a plate reader. EC50 values are calculated from the fit of the dose-response curves to a four-parameter equation (Table 4).
Target sequence in this assay (Q9NZQ7 19-290): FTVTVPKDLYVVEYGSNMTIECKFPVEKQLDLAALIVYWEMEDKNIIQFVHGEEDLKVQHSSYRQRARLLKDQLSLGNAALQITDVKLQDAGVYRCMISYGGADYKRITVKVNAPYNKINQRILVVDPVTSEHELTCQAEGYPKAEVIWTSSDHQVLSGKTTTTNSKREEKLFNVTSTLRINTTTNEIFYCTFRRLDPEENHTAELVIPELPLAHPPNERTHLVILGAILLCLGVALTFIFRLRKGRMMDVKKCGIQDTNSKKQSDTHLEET

[3] = molecular target: T2, PD-L1 (Homo sapiens, UniProt Q9NZQ7); assay: PD-L1/PD-L1 dimerization biochemical protein-protein interaction assay (ALPHA); settings: 0.5 nM His tagged PD-L1 and 0.5 nM FLAG tagged PD-L1; compound induced dimerization; read-out: AC50 PDL1 Dimer 1 nM
T2 construct: determine if they can specifically dimerize the extracellular domains of PD-L1
T2 sequence (Q9NZQ7 19-238 limits assumed): as the sequence (Q9NZQ7 19-238 limits assumed) above
T2 sequence (Q9NZQ7 19-238 limits assumed): as above
Description: PD-L1/PD-L1 Dimerization Biochemical Protein-Protein Interaction Assay
Compounds were tested in biochemical protein-protein interaction assays to determine if they can specifically dimerize the extracellular domains of PD-L1. Dimerization of the proteins (His-tagged PD-L1 and FLAG-tagged PD-L1) is measured using a bead based Amplified Luminescent Proximity Homogeneous Assay (ALPHA) platform. […] Assays are performed in 25 mM Hepes (pH 7.4), 150 mM NaCl, 3.4 mM EDTA, 0.005% Tween 20, and 0.01% BSA. Final protein concentration in the assays were 0.5 nM (His tagged PD-L1) and 0.5 nM (FLAG tagged PD-L1). After an assay reaction time of 2 hours at 25° C., 20 μg/mL (final assay concentration) ALPHA assay acceptor beads (anti-His coated) were added and incubated for 60 minutes at 25° C. Binding was measured following a final 60 minute incubation with 40 μg/mL (final assay concentration) ALPHA assay donor beads (anti-FLAG coated). AC50 values were calculated from the fit of the dose-response curves to a four-parameter equation (Table 4).

pIC50 [1]	pEC50 [2]	AC50 [3] [nM]	SMILES
10.19	6.97	53.5	Cc1c(COc2nc(OCc3cncc(C#N)c3)c(CN[C@@](C)(CO)C(=O)O)cc2Cl)cccc1-c1cccc(-c2ccc3c(c2)CNC(COC(=O)NCCO)C3)c1C (stereo partly drawn) [Compound 25]
10.19	7.23	7.47	CNC(=O)N[C@@H]1CNCc2cc(-c3cccc(-c4cccc(COc5cc(OCc6cncc(C#N)c6)c(CN[C@@](C)(CO)C(=O)O)cc5Cl)c4C)c3C)ccc21 [Compound 15]
9.51	6.81	30.6	C[C@](CO)(NCc1cc(Cl)c(OCc2cccc(-c3cccc(-c4ccc5c(c4)CNCC5)c3Cl)c2Cl)nc1OCc1cc(C#N)cc(C#N)c1)C(=O)O [Compound 27]
10.19	7.16	10.7	Cc1c(COc2cc(OCc3cncc(C#N)c3)c(CN[C@@](C)(CO)C(=O)O)cc2Cl)cccc1-c1cccc(-c2ccc3c(c2)CNCC3NC(=O)NC2CC2)c1C (stereo partly drawn) [Compound 14]
9.02	6.85	75	Cc1c(COc2cc(OCc3cc(Cl)cc(C#N)c3)c(CN[C@@](C)(CO)C(=O)O)cc2Cl)cccc1-c1cccc(-c2ccc3c(c2)CNCC3)c1C [Compound 7]
